Experimental findings from ChEMBL document CHEMBL2203026 are described below.

In general, inhibition refers to the drop in the measured response relative to a control, in per cent. Usually EC50 stands for the concentration that produces a half-maximal response. As a reminder, the fraction unbound is the share of the substance not bound to proteins or other matrix. What is called clearance is a measure of how efficiently the substance is removed, as volume per time. Broadly, the half-life is how long it takes for the measured level to halve.

Structures are written as SMILES. Bounds are passed on as bounds.

For series [1], the target named is T1, Metabotropic glutamate receptor 3 (Homo sapiens, UniProt Q14832). As to the kind of experiment: Negative allosteric modulation of mGlu3 assessed as thallium flux through GIRK channels by cell-based assay.
Target sequence in this assay (Q14832 whole entry): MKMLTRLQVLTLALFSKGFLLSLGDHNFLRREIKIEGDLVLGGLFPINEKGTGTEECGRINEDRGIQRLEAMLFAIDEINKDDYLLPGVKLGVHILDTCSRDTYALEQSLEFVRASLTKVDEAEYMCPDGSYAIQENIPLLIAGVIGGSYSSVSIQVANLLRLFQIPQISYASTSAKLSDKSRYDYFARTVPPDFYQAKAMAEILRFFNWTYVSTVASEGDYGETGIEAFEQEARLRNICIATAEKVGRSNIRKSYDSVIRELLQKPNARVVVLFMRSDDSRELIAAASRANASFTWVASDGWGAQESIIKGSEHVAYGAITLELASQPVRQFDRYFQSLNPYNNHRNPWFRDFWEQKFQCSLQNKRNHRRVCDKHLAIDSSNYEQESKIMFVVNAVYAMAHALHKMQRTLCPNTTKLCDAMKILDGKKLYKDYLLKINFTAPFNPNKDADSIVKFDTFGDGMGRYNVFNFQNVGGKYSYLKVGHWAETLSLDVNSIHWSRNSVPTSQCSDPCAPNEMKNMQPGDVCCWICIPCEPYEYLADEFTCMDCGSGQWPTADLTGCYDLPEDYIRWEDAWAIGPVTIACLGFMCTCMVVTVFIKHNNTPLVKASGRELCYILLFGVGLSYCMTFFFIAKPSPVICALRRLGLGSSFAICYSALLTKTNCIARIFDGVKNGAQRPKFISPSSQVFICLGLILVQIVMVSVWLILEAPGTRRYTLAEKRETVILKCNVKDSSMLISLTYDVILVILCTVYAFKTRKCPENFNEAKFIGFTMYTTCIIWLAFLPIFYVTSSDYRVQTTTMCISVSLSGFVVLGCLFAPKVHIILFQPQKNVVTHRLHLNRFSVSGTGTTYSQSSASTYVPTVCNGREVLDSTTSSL
Series [2] has as its target T1, Metabotropic glutamate receptor 3. Kind of series: Negative allosteric modulation of mGlu3 assessed as inhibition of glutamate-induced thallium flux through GIRK channels by cell-based assay. To be noted: concentration not given here. More on the design: concentration or dose not given beside the values.
Target sequence in this assay (Q14832 23-879 limits assumed): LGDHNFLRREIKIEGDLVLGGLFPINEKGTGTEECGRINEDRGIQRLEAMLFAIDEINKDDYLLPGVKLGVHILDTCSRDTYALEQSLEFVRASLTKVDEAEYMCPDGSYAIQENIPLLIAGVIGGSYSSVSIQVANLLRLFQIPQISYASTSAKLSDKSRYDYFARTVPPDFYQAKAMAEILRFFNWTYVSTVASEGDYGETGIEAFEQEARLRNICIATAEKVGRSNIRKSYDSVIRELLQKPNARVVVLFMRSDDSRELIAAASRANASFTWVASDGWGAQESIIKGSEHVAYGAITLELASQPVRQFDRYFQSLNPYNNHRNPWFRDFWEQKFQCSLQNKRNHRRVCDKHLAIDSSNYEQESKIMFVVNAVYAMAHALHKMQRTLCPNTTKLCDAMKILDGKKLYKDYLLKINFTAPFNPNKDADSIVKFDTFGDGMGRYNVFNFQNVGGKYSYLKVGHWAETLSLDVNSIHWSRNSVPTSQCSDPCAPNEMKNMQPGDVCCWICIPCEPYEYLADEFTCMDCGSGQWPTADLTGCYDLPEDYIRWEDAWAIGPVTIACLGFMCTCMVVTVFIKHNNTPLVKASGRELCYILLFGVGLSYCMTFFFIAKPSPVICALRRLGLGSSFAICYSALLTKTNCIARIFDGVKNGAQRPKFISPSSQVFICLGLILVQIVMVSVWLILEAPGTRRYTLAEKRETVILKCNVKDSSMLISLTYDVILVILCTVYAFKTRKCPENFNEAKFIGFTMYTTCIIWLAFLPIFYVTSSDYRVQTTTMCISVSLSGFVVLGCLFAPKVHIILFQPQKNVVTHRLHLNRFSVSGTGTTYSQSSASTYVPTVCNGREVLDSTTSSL
The target in series [3] is T2, Metabotropic glutamate receptor 5 (Rattus norvegicus, UniProt P31424). Kind of series: Positive allosteric modulation of rat mGlu5 expressed in HEK293 cells in presence of glutamate EC20 concentration by Fluo-2AM dye based fluorescence analysis. The class given is cell-based.
Target sequence in this assay (P31424 whole entry): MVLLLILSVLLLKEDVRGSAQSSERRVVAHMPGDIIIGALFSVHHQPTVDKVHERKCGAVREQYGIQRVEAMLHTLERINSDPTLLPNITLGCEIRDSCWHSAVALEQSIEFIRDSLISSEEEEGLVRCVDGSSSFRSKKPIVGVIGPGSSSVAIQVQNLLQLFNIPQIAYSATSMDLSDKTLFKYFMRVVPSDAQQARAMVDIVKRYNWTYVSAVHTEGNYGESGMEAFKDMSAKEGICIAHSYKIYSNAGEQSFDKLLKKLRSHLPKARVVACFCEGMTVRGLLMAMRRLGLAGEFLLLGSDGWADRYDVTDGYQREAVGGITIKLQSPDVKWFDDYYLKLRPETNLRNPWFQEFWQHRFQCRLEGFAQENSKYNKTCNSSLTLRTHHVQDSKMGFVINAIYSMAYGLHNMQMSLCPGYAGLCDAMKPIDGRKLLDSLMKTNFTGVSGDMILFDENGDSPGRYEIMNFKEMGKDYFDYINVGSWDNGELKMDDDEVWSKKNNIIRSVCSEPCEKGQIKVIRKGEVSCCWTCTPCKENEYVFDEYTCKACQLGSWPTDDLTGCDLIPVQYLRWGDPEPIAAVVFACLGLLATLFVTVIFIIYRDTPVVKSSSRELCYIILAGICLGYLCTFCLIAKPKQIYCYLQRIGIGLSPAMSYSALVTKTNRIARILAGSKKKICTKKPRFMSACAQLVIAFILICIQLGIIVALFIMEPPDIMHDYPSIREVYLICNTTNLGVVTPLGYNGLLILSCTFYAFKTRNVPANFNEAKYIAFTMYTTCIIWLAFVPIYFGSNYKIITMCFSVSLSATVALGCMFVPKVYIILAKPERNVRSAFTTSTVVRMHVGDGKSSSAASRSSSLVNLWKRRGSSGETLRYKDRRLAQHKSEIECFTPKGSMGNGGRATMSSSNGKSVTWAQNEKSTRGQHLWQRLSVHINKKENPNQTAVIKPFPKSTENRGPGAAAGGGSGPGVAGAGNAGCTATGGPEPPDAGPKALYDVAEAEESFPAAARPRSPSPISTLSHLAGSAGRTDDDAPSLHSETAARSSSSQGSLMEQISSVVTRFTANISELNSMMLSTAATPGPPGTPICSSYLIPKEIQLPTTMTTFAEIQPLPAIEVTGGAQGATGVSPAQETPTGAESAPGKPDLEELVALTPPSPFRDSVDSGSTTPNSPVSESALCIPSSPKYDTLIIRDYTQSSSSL
Series [4] addresses Metabotropic glutamate receptor 3 (Rattus norvegicus, UniProt P31422). Kind of series: Negative allosteric modulation of rat mGlu3 assessed as assessed as thallium flux through GIRK channels by cell-based assay.
For series [5], the target named is T3, Metabotropic glutamate receptor 2 (Homo sapiens, UniProt Q14416). Kind of series: Negative allosteric modulation of human mGlu2 expressed in AV-12 cells in presence of glutamate EC90 concentration by FLIPR assay. It counts as cell-based, AV12.
T3 sequence (Q14416 whole entry): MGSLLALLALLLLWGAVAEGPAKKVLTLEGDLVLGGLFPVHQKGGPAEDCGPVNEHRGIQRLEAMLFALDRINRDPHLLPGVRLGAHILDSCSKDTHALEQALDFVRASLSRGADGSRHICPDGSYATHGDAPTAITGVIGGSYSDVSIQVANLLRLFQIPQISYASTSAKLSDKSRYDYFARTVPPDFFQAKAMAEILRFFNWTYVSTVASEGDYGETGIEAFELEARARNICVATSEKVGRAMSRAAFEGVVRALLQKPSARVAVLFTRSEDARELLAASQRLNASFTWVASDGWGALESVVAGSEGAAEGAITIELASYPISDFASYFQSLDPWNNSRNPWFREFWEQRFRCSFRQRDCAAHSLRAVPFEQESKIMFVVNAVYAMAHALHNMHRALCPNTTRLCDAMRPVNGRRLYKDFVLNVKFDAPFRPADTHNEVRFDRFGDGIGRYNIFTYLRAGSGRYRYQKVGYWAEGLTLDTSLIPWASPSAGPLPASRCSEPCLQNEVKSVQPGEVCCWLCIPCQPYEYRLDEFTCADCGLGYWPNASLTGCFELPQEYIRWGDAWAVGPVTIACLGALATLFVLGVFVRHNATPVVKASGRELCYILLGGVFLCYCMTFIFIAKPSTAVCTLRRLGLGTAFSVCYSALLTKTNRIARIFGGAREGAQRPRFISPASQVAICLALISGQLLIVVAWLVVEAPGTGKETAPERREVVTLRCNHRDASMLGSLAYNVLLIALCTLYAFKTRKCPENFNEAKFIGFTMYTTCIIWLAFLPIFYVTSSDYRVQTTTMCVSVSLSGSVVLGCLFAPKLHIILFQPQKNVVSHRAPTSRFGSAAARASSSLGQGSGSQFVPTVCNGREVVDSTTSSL
The target in series [6] is T1, Metabotropic glutamate receptor 3. As to the kind of experiment: Negative allosteric modulation of human mGlu3 expressed in AV-12 cells in presence of glutamate EC90 concentration by FLIPR assay. It counts as cell-based, AV12.
Target sequence in this assay (Q14832 whole entry): as the sequence (Q14832 whole entry) above
The target in series [7] is T3, Metabotropic glutamate receptor 2. As to the kind of experiment: Negative allosteric modulation of mGlu2 assessed as thallium flux through GIRK channels by cell-based assay.
Series [8] in a line: Selectivity index, ratio IC50 for mGlu2 to IC50 for mGlu3.
Series [9] deals with T3, Metabotropic glutamate receptor 2. Kind of series: Negative allosteric modulation of mGlu2 by cell-based assay.
For series [10], the target named is T1, Metabotropic glutamate receptor 3. As to the kind of experiment: Negative allosteric modulation of mGlu3 assessed as inhibition of glutamate-induced calcium mobilization in presence of Galpha15 by cell based assay. It counts as functional.
Target sequence in this assay (Q14832 whole entry): as above
The target in series [11] is T2, Metabotropic glutamate receptor 5. As to the kind of experiment: Positive allosteric modulation of mGlu5 assessed as potentiation of glutamate-induced calcium mobilization by cell based assay. The class given is functional. A general note: Calcium flux is commonly read through the fluorescence of an indicator in the cells.
Target sequence in this assay (P31424 whole entry, looked up): as the sequence (P31424 whole entry) above
For series [12], the target named is Cytochrome P450 3A4 (Homo sapiens, UniProt P08684). Kind of series: Inhibition of CYP3A4 in human liver microsomes. The class given is ADME, Microsome. On the technique in general: Microsomes from liver hold many membrane-bound enzymes, among them those of drug oxidation.
The target of series [13] is Cytochrome P450 2C9 (Homo sapiens, UniProt P11712). Kind of series: Inhibition of CYP2C9 in human liver microsomes. It counts as ADME, Microsome.
Series [14] deals with Cytochrome P450 2D6 (Homo sapiens, UniProt P10635). As to the kind of experiment: Inhibition of CYP2D6 in human liver microsomes. It counts as ADME, Microsome.
In series [15] the target is T4, Cytochrome P450 1A2 (Homo sapiens, UniProt P05177).
T4 sequence (P05177 whole entry): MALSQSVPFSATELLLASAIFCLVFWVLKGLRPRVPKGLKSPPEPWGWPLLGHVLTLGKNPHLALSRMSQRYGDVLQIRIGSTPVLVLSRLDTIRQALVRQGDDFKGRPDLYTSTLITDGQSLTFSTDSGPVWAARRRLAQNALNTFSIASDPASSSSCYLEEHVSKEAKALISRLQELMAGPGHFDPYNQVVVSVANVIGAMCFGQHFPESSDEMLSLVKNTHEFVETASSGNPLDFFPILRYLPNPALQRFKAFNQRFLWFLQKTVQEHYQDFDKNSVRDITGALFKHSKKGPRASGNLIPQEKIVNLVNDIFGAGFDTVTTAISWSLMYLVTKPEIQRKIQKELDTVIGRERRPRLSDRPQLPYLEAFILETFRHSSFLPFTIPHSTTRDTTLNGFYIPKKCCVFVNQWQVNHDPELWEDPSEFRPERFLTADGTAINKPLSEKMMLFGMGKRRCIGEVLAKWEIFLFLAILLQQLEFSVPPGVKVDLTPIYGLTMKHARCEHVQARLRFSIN
Kind of series: Inhibition of CYP1A2 in human liver microsomes. It counts as ADME, Microsome.

The nature of series [16]: Fraction unbound in rat plasma. The class given is ADME, cell-free.
Series [17] in a line: Fraction unbound in human plasma. It counts as ADME, cell-free.
Series [18] in a line: Clearance in rat at 1 mg/kg, iv. The class given is ADME, organism-based. Set-up: dose 1 mg/kg, route intravenous. To be noted: in vivo.
Series [19] in a line: Volume of distribution at steady-state concentration in rat at 1 mg/kg, iv. It counts as ADME, organism-based. More on the design: dose 1 mg/kg, route intravenous. Conditions: in vivo, read-out: Vdss; call rule not given here.
Series [20] in a line: Half life in rat at 1 mg/kg, iv. The class given is ADME, organism-based. Conditions: in vivo. Set-up: dose 1 mg/kg, route intravenous.
The test system of series [21] is Brain. Kind of series: Drug level in rat brain at 10 mg/kg. More on the design: dose 10 mg/kg. To be noted: in vivo, read-out: Drug uptake. The class given is ADME, organism-based.
In series [22] the test system is Plasma. As to the kind of experiment: Plasma concentration in rat at 10 mg/kg. It counts as ADME, organism-based. More on the design: dose 10 mg/kg. To be noted: in vivo.
The test system of series [23] is Nucleic Acid. As to the kind of experiment: Ratio of drug level in brain to plasma of rat at 10 mg/kg. More on the design: dose 10 mg/kg. It counts as ADME, organism-based.
For series [24], the target named is T2, Metabotropic glutamate receptor 5. As to the kind of experiment: Negative allosteric modulation of mGlu5 assessed as inhibition of glutamate-induced calcium mobilization by cell based assay. The class given is functional.
Target sequence in this assay (P31424 whole entry, looked up): as the sequence (P31424 whole entry) above
Series [25] is described as follows: Drug metabolism in rat liver microsome assessed as CYP450-mediated (R)-(3-(hydroxymethyl)piperidin-1-yl)(4-((4-hydroxyphenyl)ethynyl)phenyl)methanone formation. The class given is ADME. To be noted: microsomes.
A short description of series [26]: Drug metabolism in human liver microsome assessed as CYP450-mediated (R)-(3-(hydroxymethyl)piperidin-1-yl)(4-((4-hydroxyphenyl)ethynyl)phenyl)methanone formation. Conditions: microsomes. It counts as ADME.
Series [27] concerns the target T1, Metabotropic glutamate receptor 3. As to the kind of experiment: Negative allosteric modulation of mGlu3 by cell-based assay.
Target sequence in this assay (Q14832 whole entry): as the sequence (Q14832 whole entry) above

Sequence of Metabotropic glutamate receptor 3 (Rattus norvegicus, UniProt P31422) (P31422 whole entry): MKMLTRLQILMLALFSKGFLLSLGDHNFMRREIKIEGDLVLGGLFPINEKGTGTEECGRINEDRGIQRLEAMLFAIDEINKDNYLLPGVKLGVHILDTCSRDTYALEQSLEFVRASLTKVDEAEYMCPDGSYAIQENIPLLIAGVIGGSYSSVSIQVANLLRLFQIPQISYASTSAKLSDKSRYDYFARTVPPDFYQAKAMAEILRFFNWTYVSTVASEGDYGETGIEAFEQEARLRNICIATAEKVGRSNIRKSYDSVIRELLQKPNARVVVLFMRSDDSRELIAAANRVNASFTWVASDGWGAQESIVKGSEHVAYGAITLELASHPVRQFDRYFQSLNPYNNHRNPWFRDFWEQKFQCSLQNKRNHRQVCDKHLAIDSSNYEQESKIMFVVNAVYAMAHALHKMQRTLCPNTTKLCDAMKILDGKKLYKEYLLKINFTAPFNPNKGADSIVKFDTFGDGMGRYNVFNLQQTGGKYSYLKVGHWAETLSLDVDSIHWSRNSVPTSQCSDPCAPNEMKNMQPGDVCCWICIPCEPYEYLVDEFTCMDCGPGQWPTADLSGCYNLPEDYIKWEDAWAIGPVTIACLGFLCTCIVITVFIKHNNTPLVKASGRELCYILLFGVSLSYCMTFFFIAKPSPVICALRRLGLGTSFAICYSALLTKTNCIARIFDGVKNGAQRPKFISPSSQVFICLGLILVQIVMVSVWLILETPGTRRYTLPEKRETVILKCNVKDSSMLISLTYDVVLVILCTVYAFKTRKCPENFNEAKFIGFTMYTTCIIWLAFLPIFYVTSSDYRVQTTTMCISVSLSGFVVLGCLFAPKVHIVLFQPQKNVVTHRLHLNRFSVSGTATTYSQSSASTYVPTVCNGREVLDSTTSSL

Take `COc1ccc(C#Cc2ccc(C(=O)N3CCC(C)(O)CC3)cc2)cc1`: the IC50 in [1] (read-out: IC50) stood at 5 µM. Moreover, the inhibition in [2] was 4.4%.

On to `COc1ccc(C#Cc2ccc(C(=O)N3CCC[C@@H](C(=O)O)C3)cc2)cc1`, for which, in series [1] (read-out: IC50), the IC50 was greater than 10 µM. In series [2], the inhibition stood at 16.4%.

As for `O=C(c1ccc(C#Cc2ccccc2)cc1)N1CCC(O)CC1`, the EC50 in [3] was 0.27 µM. In addition, the IC50 in series [4] was greater than 10 µM.

`COc1ccc(C#Cc2ccc(C(=O)N3CCN(C(C)C)CC3)cc2)cc1`: the IC50 in series [1] (read-out: IC50) was greater than 10 µM. The inhibition in series [2] was 7.6%.

On to `Clc1ccc(CN[C@H]2CCN(c3ncc(Br)cn3)C2)c(Cl)c1`, for which the IC50 in series [5] was greater than 12.5 µM; in [6] it was 0.19 µM; in [7] it was 17 µM; in [1] (read-out: IC50) it was 4.2 µM. The Ratio IC50 in series [8] was found to be 4.

As to `COc1ccc(C#Cc2ccc(C(=O)N3CCC[C@H](C(=O)O)C3)cc2)cc1`, the IC50 in series [1] (read-out: IC50) is 5.7 µM. Also, the inhibition in series [2] was 2.2%.

For the molecule `COc1ccc(C#Cc2ccc(C(=O)N3CCCC(CO)C3)cc2)cc1` (racemic), the IC50 in series [1] (read-out: IC50) was determined as 2.1 µM. Moreover, the inhibition in [2] stood at 0.5%.

Regarding `COc1ccc(C#Cc2ccc(C(=O)N3CCC[C@H](CO)C3)cc2)cc1`, the IC50 is greater than 10 µM in series [9] and 3.24 µM in [1] (read-out: pIC50 (converted)). Further, in series [2], the inhibition is -1.7%.

As to `COc1ccc(C#Cc2ccc(C(=O)N3CCCC(O)C3)cc2)cc1` (centres undefined), the IC50 in series [1] (read-out: IC50) amounted to 2.5 µM. The inhibition in [2] was -1.1%.

For `COc1ccc(C#Cc2ccc(C(=O)N3CCC[C@@H](CO)C3)cc2)cc1`, the IC50 is greater than 10 µM in series [9]; 1.5 µM in series [1] (read-out: IC50); 0.66 µM in series [10]; greater than 30 µM in [12]; greater than 30 µM in series [13]; greater than 30 µM in series [14]. Also, the IC50 in series [15] was greater than 30 µM; in series [24], greater than 10 µM. For the same molecule, the inhibition in series [2] was -4.4%. Besides, the EC50 in series [11] was greater than 10 µM. The Ratio IC50 in series [8] was determined as 15. The fraction unbound in [16] worked out at 0.01; in [17] it was 0.02. Besides, in series [18], the clearance came to 33 mL/min/kg. Further, the Vd in series [19] turned out to be 0.6 L/kg. Besides, the half-life in [20] stood at 16.8 min. For the same molecule, the concentration came to 16.3 µM in series [21] and 9.7 µM in series [22]. Also, in series [23], the BPR was 1.67. Also, the Drug metabolism entry in [25] and in series [26] was “Active” each time.

`Cc1cc(-c2cccc(C3=Nc4cc(C)c(C(F)(F)F)cc4NC(=O)C3)c2)cc(C)n1`: the IC50 was 0.296 µM in [9] and 0.27 µM in [27].

Consider `COc1ccc(C#Cc2ccc(C(=O)N3CCC(O)CC3)cc2)cc1`, for which the IC50 in series [1] (read-out: IC50) came to 3.8 µM. Besides, the inhibition in [2] was 10.4%.

Turning to `CCN1CCC[C@H]1CC(=O)c1ccc(C#Cc2ccc(OC)cc2)cc1`, the IC50 in series [1] (read-out: IC50) was greater than 10 µM. Moreover, in series [2], the inhibition is 9.6%.
